The results in this text go back to PubChem BioAssay AID2060332 (Molecular Pharmacology Branch, DTP, NCI, 2025).

Several values for one entry are separate records, joined by “and”; a condition that tells them apart may be missing. Identical values can stand only once.

In this experiment the test system is LG0567-F671-PDC multi-cell spheroid viability. As to the kind of experiment: Anticancer human tumor LG0567-F671-PDC patient-derived lung adenocarcinoma cell line growth inhibition [IpAb]. The following applies: for viability, T/C: stronger effect = lower value. In a few lines:
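Spheroids of 60% malignant cells, 25% HUVEC and 15% MSC were exposed to targeted agents combined with ipatasertib or abemaciclib. Doses started at or near clinical Cmax (10 microM when unknown) and fell in half-log steps.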
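Also: viability read after 7 days of drug exposure.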
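For viability, T/C in this document: 100% = DMSO vehicle control luminescence.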

In the case of `Cn1ncc(Cl)c1-c1cc(C(=O)NC(CN)Cc2cccc(F)c2)sc1Cl` (configuration not stated), the viability, T/C by setting is: (compound 0.0316 µM) 111% and 97.3%; (compound 0.1 µM) 93% and 66%; (compound 0.316 µM) 52.6% and 62.1%; (compound 1 µM) 82.9% and 63%; (compound 3.16 µM) 53% and 45.6%; (compound 10 µM) 0.27% and 0.21%. Besides, for the setting “curve of compound”, the IC50 is 2470 nM and 1660 nM.

What is called viability, T/C is the ratio of treated to control. The term IC50 denotes the point on the concentration scale where inhibition reaches its midpoint.
